The values that follow come from patent publication US20240269128A1, “COMPOUNDS FOR TREATING OR PREVENTING ALZHEIMER'S DISEASE” (THE UNITED STATES OF AMERICA, as represented by the …, priority 2021, published 2024).

In the test the test system is 5xFAD mice. Put plainly: Plasma NfL in 5xFAD mice (NF-light ELISA). In kind it is in vivo, mouse. To be noted: compared to saline-treated transgenic mice. On the procedure: HCQ nano (poly(L-lysine succinylated)-HCQ, or PLS-HCQ) preparation: 2.5 mL of saline were added to each vial of lyophilized material on each dose day and vortexed briefly to mix. Fresh vials were prepared daily. Solution was pale yellow in color and was protecedt from light. Remaining material was discardedafter animals were successfully dosed each day. […] 100 mg/kg, i.p. injection 10 μL/g b.w.
TUDCA preparation: Dissolved in saline; treatment dosage 500 mg/kg; i.p. injection 10 μL/g b.w.
Animal management: Animals were housed in individual ventilated cages on standardized rodent bedding supplied by Rettenmaier. Each cage contained a maximum of five mice. The temperature in the keeping room was maintained between 20 to 24° C. and the relative humidity was maintained between 45 to 65%. Animals were housed under a constant light-cycle (12 hours light/dark). […]
The NF-light® (Neurofilament-light) ELISA 10-7001 CE from UmanDiagnostics was used for analysis. The following samples were analyzed: terminal CSF, terminal blood plasma as well as all 4 timepoints from the in vivo bleedings from 6 animals per groups (3 groups; 18 animals, 108 samples in total). Samples were diluted (1:3 for plasma, 1:35 for CSF) in assay buffer and analyzed according to the manufacturers protocol. CSF and in vivo samples are analyzed in single replicates only, due to limited sample volume. […]

`CCN(CCO)CCCC(C)Nc1ccnc2cc(Cl)ccc12` (centres unmarked) [HCQ, hydroxychloroquine]: the “peak in plasma NfL levels” value (100 mg/kg i.p.) is “partially lowered”.
In the case of `C[C@H](CCC(=O)NCCS(=O)(=O)O)[C@H]1CC[C@H]2[C@@H]3[C@@H](O)C[C@@H]4C[C@H](O)CC[C@]4(C)[C@H]3CC[C@]12C` [TUDCA, tauroursodeoxycholic acid], the “peak plasma NfL levels” value (500 mg/kg i.p.) is reported as “partially lowered”.
